We go through two molecules from paper PMC5983452 (PLoS ONE, 2018).

One data set is described as follows: Caco-2 permeability. To be noted: human, 10 µM. (In general: Passage across Caco-2 layers is used to estimate intestinal permeability.)
The subject of the next data set is Caco-2 cells. Description: Caco-2 permeability.
Another data set is described as follows: in vitro. To be noted: human.
For data set [1], the system named is panel of 140 cell lines grown in matrigel. Description: cells. To be noted: read-out: growth effects in panel of 140 cell lines grown in matrigel (none observed up to).
Data set [2] in a line: Hepatocyte stability, monkey. In kind it is in vitro ADME, cyno-monkeys. To be noted: male, cryopreserved hepatocytes, read-out: CLint measured with hepatocytes, Monkey.

Each structure is given as a SMILES string. Where a name gives a salt, the structure may show the parent alone.

Experimental for Caco-2 cells: (§1) Caco-2 permeability. Caco-2 cells (obtained from the ATCC), between passage numbers 40 to 60, were seeded onto Millipore
(§2) Multiscreen plates at 1x10^5 cells/cm2 in Dulbecco's Modified Eagle Medium. Media was changed every two or three days. On
(§3) Day 20, the permeability study was performed using Hanks Balanced Salt Solution (HBSS) pH 7.4 buffer with 25 mM HEPES and
(§4) Incubations were carried out in an atmosphere of 5% CO2 with a relative humidity of
(§5) The monolayers were prepared by rinsing both basolateral and apical surfaces twice with HBSS at 37°C. Cells were
(§6) then incubated with HBSS in both apical and basolateral compartments for 40 min to stabilize physiological parameters. HBSS
(§7) was then removed from the apical or basolateral compartment and replaced with 10 µM test compound dosing solutions (1% final
(§8) DMSO). The pH of supplemented HBSS was 6.5 and 7.5 in the apical and basolateral compartments, respectively. The apical
(§9) compartment inserts were then placed into ‘companion’ plates containing fresh HBSS.
(§10) removed and apical and basolateral samples diluted for analysis by LC-MS/MS. Permeability was assessed in duplicate, on two
(§11) different occasions. On each plate atenolol and propanolol were run as controls. Compounds were quantified by LC-MS/MS analysis using a 5 point calibration curve. The starting concentration (C0) was determined from the dosing solution and
(§12) experimental recovery calculated from C0 and both apical and basolateral compartment concentrations. The permeability coefficient
(§13) (Papp) for each compound was calculated as: (dQ/dt)/(C0xA), where dQ/dt is the rate of permeation of the drug across the cells, C0
(§14) is the donor compartment concentration at time zero and A is the area of the cell monolayer.
(§15) Plasma protein binding. Plasma protein binding was assessed by equilibrium dialysis utilizing the HT-dialysis cell format with a
(§16) cellulose semi-permeable membrane (molecular weight cut-off of 5000 Da). Solutions of test compounds (1 µM, 0.5% final
(§17) DMSO concentration) were prepared in isotonic phosphate buffer (pH 7.4) and 100% pooled male CD-1 mouse plasma. The
(§18) buffer solution was added to one side of the membrane and the plasma solution to the other side. Incubations were performed in
(§19) Haloperidol was incubated in parallel as the control compound for each species. At the end of the incubation time, samples were taken from both sides of the membrane.
(§20) Following protein precipitation, the samples were analyzed by LC-MS/MS using two sets of calibration standards for protein free
(§21) (7 points) and protein containing solutions (6 points). Samples were quantified using standard curves prepared in the equivalent
(§22) matrix. The fraction unbound in plasma (fu) was calculated using the following equation:
(§23) Where, PC = sample concentration in protein containing side, PF = sample concentration in protein free side, and VCorrection =
(§24) correction factor for the volume shift i.e. ratio of the volume of the protein after dialysis to that before dialysis.
Experimental for in vitro: as §1, §2, §3, §4, §5, §6, §7, §8, §9, §10, §11, §12, §13, §14, §15, §16, §17, §18, §19, §20, §21, §22, §23, §24

In general, Papp A→B refers to how fast a substance crosses the layer from the apical side. One may read the Papp B→A as how fast a substance crosses the layer from the basolateral side. In turn, `O=C(NC1CN(Cc2cnn(Cc3ccc(Cl)cc3)c2)C1)c1cn(C2CC2)nn1` [EPZ033294] displayed a Papp A→B at 120 min, 10 µM in “Caco-2 permeability” (Caco-2, Papp,AB, apical pH 6.5 / basolateral pH 7.5, 120 min) of 21.8 nm/s. The Papp B→A at 120 min, 10 µM in “Caco-2 permeability” (Caco-2, Papp,BA, 120 min) amounted to 643 nm/s. The “Caco-2 assay outcome in words” value in the data set on Caco-2 cells was “both permeable and an efflux substrate”.

Turning to `NC1CCC(S(=O)(=O)N2C3CCC2CC(NC(=O)c2cc(C4CC4)on2)C3)CC1` [EPZ028862, N-((1R,3R,5S)-8-((1r,4R)-4-aminocyclohexylsulfonyl)-8-aza-bicyclo[3.2.1]octan-3-yl)-5-cyclopropylisoxazole-3-carboxamide hydrochloride], in the data set “in vitro” (Caco-2, Papp,AB), the apical-to-basolateral permeability (Papp A→B) at 120 min, 10 µM was found to be 4.6 nm/s. In “in vitro” (Caco-2, Papp,BA), this molecule registered an apparent permeability from basolateral to apical (Papp B→A) at 120 min, 10 µM of 164 nm/s. In addition, the IC50 in data set [1] is greater than 25 µM. In data set [2], the hepatocyte CLint at 1 µM turned out to be 3.2 µL/min/1e6 cells.
